Measured values from US9238069B2, “Method of sensitizing cancer cells to the cytotoxic effects of death receptor ligands in cancer treatment” (The United States of America, as represented by the …, priority 2009, dated 2016).

Tests used:
ACHN renal cancer cells = experiment: SRB dose-response assay for synergy with TRAIL (percent growth inhibition); type: cell-based; settings: 4 h presensitization, TRAIL 20 ng/mL, FIG. 11
Excerpt: FIG. 11 depicts the dose-response curves for withanolide E and withanolide S in the presence of TRAIL. The y-axis represents percent growth inhibition for ACHN renal cancer cells. The lines labeled “−TRAIL” are the dose-response curves for withanolide E and withanolide S in the absence of TRAIL. The lines labeled “predicted +TRAIL” is the predicted additive percent growth inhibition resulting from addition of the growth inhibition due to withanolide E and withanolide S plus TRAIL. The lines labeled “Actual +TRAIL” is the actual percent growth inhibition determined by the assay.
This Example illustrates another aspect of the assay. […] Controls were combined on each assay plate and included: SRB background absorbance (no cells), untreated (DMSO-only) cells, TRAIL-only cells, cytotoxicity positive control −TRAIL (sanguinarine hydrochloride; one concentration), and synergy positive control +TRAIL (bortezomib; one conconcentrion plus a dose-response range).
Compound dilutions were prepared in clear test medium and added to cells. […] Dye was resolubilized by addition of 10 mM TRIZMA base solution (30 μL) and resuspended on a rotary shaker for a few minutes before reading the plates for absorbance at 520 nm using a Safire plate reader (Tecan Group Ltd., Männedorf, Switzerland). […]

caspase-8 in ACHN cells = experiment: Western blot of caspase-8 cleavage after sensitizer plus TRAIL; type: cell-based; settings: compound 10 μM, sensitized 4 h, then TRAIL 40 ng/mL, FIG. 5
Method: This Example illustrates cleavage of caspase resulting from treatment of cells with anolides in combination with TRAIL. ACHN cells were seeded into 6-well tissue culture plates at […] cells/well in clear test medium and the next day compound was added to a final concentration of 10 μM. Cells were sensitized for 4 h followed by addition of TRAIL to 40 ng/mL final concentration. Cells were harvested in lysis buffer at short intervals after addition of the TRAIL reagent using 165 μL per well. Lysis buffer contained: 50 mM Tris-Cl (pH 8.0), 300 mM NaCl, 5 mM EDTA, 0.5% Triton X-100, 40 μM Z-VAD-FMK, plus one mini-complete protease inhibitor tablet (Roche, Mannheim, Germany) or 100 μL Halt Protease Inhibitor Single-Use Cocktail (Pierce Biotechnology, Inc., Rockford, Ill.) per 6 mL buffer. Lysates were clarified by centrifugation at 4° C. for 15 min at 15,000 rpm and protein content normalized using the bicinchonic acid (BCA) assay (Pierce Biotechnology, Inc.).
Lysates were run under reducing conditions at 20 μg total protein per lane, in NuPAGE 4-12% Bis-Tris gels (1.0 mm×12 well; Invitrogen), using MESS DS running buffer and added antioxidant in the upper chamber. […]
The Western blots determined using the above protocol for withanolide E is depicted in FIG. 5.

Substance | percent growth inhibition in combination with TRAIL versus sensitizer alone or TRAIL alone (synergistic response) (ACHN renal cancer cells) | cleavage of caspase-8 (caspase-8 in ACHN cells)
withanolide E | substantially greater | resulted in the cleavage of caspase-8
withanolide S | substantially greater | 
